Assays:
A2780 cancer cell line = experiment: Cytotoxicity: inhibitory growth activity, sulforhodamine B assay; type: cell-based; details: 24 hours drug exposure, 96 hours recovery, SRB
Method: (§1) Compounds were tested for inhibitory growth activity against the A2780 and A549 cancer cell lines. Each drug was tested for activity at six different concentrations (100 μM, 50 μM, 10 μM, 5 μM, 1 μM and 0.1 μM) and each concentration was tested in triplicate, relative to a cisplatin control.
(§2) The A2780 cancer cell line was maintained by growing the cells in RPMI media supplemented with 5% fetal bovine serum, 1% penicillin/streptomycin and 2 mM L-glutamine. The cells were split when approximately 70-80% confluence were reached using 0.25% trypsin/EDTA. The cells were kept incubated at 37° C., 5% CO2, high humidity. The A549 cancer cell line was maintained by growing the cells in DMEM media supplemented with 10% fetal bovine serum, 1% penicillin/streptomycin and 2 mM L-glutamine. The cells were split when approximately 70-80% confluence were reached using 0.25% trypsin/EDTA. The cells were kept incubated at 37° C., 5% CO2, high humidity.
A2780 cancer cells were plated out at 50000 cells/well (±10%) on day one. A549 cancer cells were plated out at 20000 cells/well (±10%) on day two. On day three the test compound was dissolved in DMSO to give a stock solution of 20 mM and serial dilutions were carried out in DMSO to give concentrations of drug in DMSO of 10 mM, 2 mM, 1 mM, 0.2 mM and 0.02 mM. These were added to the wells to give the six testing concentrations and a final concentration of DMSO as 0.5% (v/v) with a total volume of drugs and media to be 200 μl. The cells were exposed to the drug for 24 hours then, after drug removal, fresh media was given and the cells were incubated for 96 hours recovery time. The remaining biomass was estimated by the sulforhodamine B assay. The cells were then fixed using 50 μl 50% (w/v) TCA and incubated at 4° C. for one hour. The biomass was stained with 100 μl 0.4% (w/v) sulforhodamine B in 1% acetic acid. The dye was solubilised with Tris Buffer and the absorbance was read using a BMG Fluostar microplate reader at 595 nm. A baseline correction at 690 nm was subtracted from the values. The absorbance for 100% cell survival was based on the average absorbance for the 0.1 μM dosed triplicate for that drug. IC50 values were calculated using XL-Fit version 4.0.

A549 cancer cell line [1] = experiment: as above; type: cell-based; details: 24 hours drug exposure, 96 hours recovery, SRB
Method: as §1
as §2, with “The cells were split when approximately 70-80% confluence were reached using 0.25% trypsin/EDTA.” left out
A2780 cancer cells were plated out at 50000 cells/well (±10%) on day one. A549 cancer cells were plated out at 20000 cells/well (±10%) on day two. […] The remaining biomass was estimated by the sulforhodamine B assay. The cells were then fixed using 50 μl 50% (w/v) TCA and incubated at 4° C. for one hour. The biomass was stained with 100 μl 0.4% (w/v) sulforhodamine B in 1% acetic acid. The dye was solubilised with Tris Buffer and the absorbance was read using a BMG Fluostar microplate reader at 595 nm. A baseline correction at 690 nm was subtracted from the values. The absorbance for 100% cell survival was based on the average absorbance for the 0.1 μM dosed triplicate for that drug. IC50 values were calculated using XL-Fit version 4.0.

[2] = 50 μM, 95% H2O, 5% MeOH, pH 2.27
[3] = Aqueous solution chemistry followed by 1H NMR (hydrolysis, arene loss); type: physicochemical
Method: NMR-Spectroscopy: All ^1H NMR experiments for characterization of synthesized compounds were recorded on either a Bruker DMX 500 MHz spectrometer equipped with TBI [^1H, ^13C, ^15N] probe-head, equipped with z-field gradients or a Bruker DPX 360 MHz spectrometer. The proton signals were calibrated against the residual solvent peak, δ 7.27 (chloroform), 2.07 (acetone) and 2.52 (DMSO). The 2D ^1H-TOCSY and 2D ^1H COSY experiments for characterization were run on a Bruker DMX 500 MHz spectrometer. 2D-^1H ROESY experiment for characterization was recorded on a Bruker AVA […] spectrometer equipped with a with a TXI [^1H, ^13C, ^15N] probe-head, equipped with z-field gradients. All pH titration experiments were recorded on a Bruker AVA 600 MHz spectrometer where dioxan was added as an internal reference (δ 3.75, in 100% D2O). The water was suppressed using a 1D Double Pulse Field Gradient Spin Echo (DPFGSE) experiment. The aqueous solution behaviour was recorded on a Bruker bio 600 MHz spectrometer equipped with a cryoprobe and the water was suppressed using a 1D Double Pulse Field Gradient Spin Echo (DPFGSE) experiment. The chemical shifts were measured relative to dioxin (internal reference δ 3.75, in 90% H2O/10% D2O). All spectra were recorded using 5 mm quartz tubes at 298 K unless stated otherwise. All NMR data were processed using Xwin-NMR (Version 2.0 Bruker UK Ltd).
The complex was dissolved in H2O/D2O, the pH was taken, and NMR spectra were recorded at uniform time intervals at a fixed temperature using a multi-zg kinetic experiment program. After acquisition, Electrospray Mass Spectrometry was performed on a portion of the NMR solution.
The solution chemistry was followed by ^1H NMR unless stated otherwise.

A549 cancer cell line [4] = experiment: Cell viability after increasing thiol levels (NAC pre-incubation); type: cell-based; details: 24 hours incubation, 96 hour recovery, 5 mM NAC for two hours, FIG. 5
Method: Cell viability was determined in the A549 cancer cell line after cells were pre-incubated with 5 mM NAC to increase intracellular thiol levels. […] This implies that ROS are involved in cell death.

A549 cancer cells = experiment: Detection of reactive oxygen species (ROS) with DCFH-DA probe; type: cell-based; details: 25 μM, 0.5% DMSO, 6.5 hours, 310 K, cells pre-loaded with DCFH-DA; FIG. 4
Method: The generation of ROS can be detected inside living cells using the molecular probe DCFH-DA. This probe crosses the membrane into cells where it is hydrolyzed to DCFH. In the presence of ROS it is oxidized to highly fluorescent DCF. […] Cells were loaded with DCFH-DA (10 μM, 0.5% DMSO (v/v)) and were incubated at 310 K, 5% CO2, high humidity for 30 minutes. The probe was removed and the cells were washed twice with PBS (200 μL). The cells were then kept in Hanks Balanced Salt Solution (HBSS) and the ruthenium compounds were diluted with HBSS and added to the wells (25 μM, 0.5% DMSO (v/v)). Hydrogen peroxide (25 μM) was added as a positive control and the fluorescence was read every 200 seconds over a period of 6.5 hours at 310 K by excitation at 480±10 nm and emission at 538±15 nm on a BMG fluostar plate reader. A time course experiment was performed to follow any increase in fluorescence over 6.5 hours after addition of ruthenium compounds to cells pre-loaded with DFCH-DA.

[5] = Solution chemistry in phosphate buffer mimicking cell test conditions (NMR, ESI-MS); type: physicochemical; details: 100 μM, 10 mM phosphate buffer, 95% D2O, 5% MeOD, 310 K, 24 h; pH* 7.35 (8), 7.40 (10), 7.31 (13), 7.38 (21)
Method: Solutions of four ruthenium complexes (8, 10, 13 and 21) in MeOD were diluted down in 10 mM phosphate buffer/D2O to give a final concentration of 100 μM ruthenium (95% D2O, 5% MeOD) and NMR spectra were recorded at 310 K initially (time ca. 15 minutes) and after 24 h. The pH* of the samples was 7.35 (8), 7.40 (10), 7.31 (13) and 7.38 (21), The samples were kept in the water bath at 310 K between acquisitions. After 24 hour, ESI-MS was performed on the samples. These conditions were chosen to mimic pH, concentration, exposure time and temperature for the biological cell tests.

[6] = Reactions with ascorbate (UV-Vis, 1H NMR); type: physicochemical; details: 5 equivalents ascorbate, 10 mM phosphate buffer, pH 7.35 (UV-Vis) / 7.30 (NMR), 310K
[7] = 100 μM, 90% H2O/10% D2O, pH=ca 5, 25° C., initially (time=40 mins)

Compound | IC50 (A2780 cancer cell line) | IC50 (A549 cancer cell line [1]) | further results
[Ru(p-cymene)(3(5)-(4-dimethylaminophenylazo)pyrazole)Cl]PF6 [Compound 14] | 18 µM | 41 µM | half live for hydrolysis [2]: 2.09 h; speciation after 24 hours ([3]; 100 μM, 90% H2O/10% D2O, pH=ca 5, 25° C., after 24 hours): exists fully in the aqua form; aqua species [3, 7]: ~40%; chloride species [3, 7]: ~60%; course of the hydrolysis reaction ([3]; 100 μM, 90% H2O/10% D2O, pH=ca 5, 37° C. over 24 hours, compared with 25° C.): the course of the reaction is the same
[Ru(biphenyl)(Azpy-NMe2)I]PF6 [Compound 10] | 3 µM | 2 µM | cell survival of cells pre-treated with NAC versus untreated cells (A549 cancer cell line [4]; 1 μM drug): greater cell survival; change in DCF fluorescence over time (ROS generation) (A549 cancer cells): increase in the DCF fluorescence
[Ru(p-cymene)(4-phenol-azo pyridine)Cl]PF6 [Compound 11] | 54 µM | – | –
[Ru(benzene)(3(5)-(4-dimethylaminophenylazo)pyrazole)Cl]PF6 [Compound 17] | 88 µM | – | –
[Ru(biphenyl)(4-phenol-azo pyridine)I]PF6 [Compound 13] | 5 µM | 6 µM | cell survival of cells pre-treated with NAC versus untreated cells (A549 cancer cell line [4]; 5 μM drug): greater cell survival; change in DCF fluorescence over time (ROS generation) (A549 cancer cells): increase in the DCF fluorescence
[Ru(biphenyl)(4-phenol-azo pyridine)Cl]PF6 [Compound 12] | 18 µM | 56 µM | –
CN(C)c1ccc(N=Nc2cc[nH]n2)cc1.F[P-](F)(F)(F)(F)F.[I-].[Ru+2].c1ccc(-c2ccccc2)cc1 [Compound 16, [Ru(biphenyl)(3(5)-(4-dimethylaminophenylazo)pyrazole)I]PF6] | 31 µM | 42 µM | –
[Ru(p-cymene)(Azpy-NMe2NO2)I]PF6 [Compound 20] | 40 µM | 28 µM | –
CN(C)c1ccc(N=Nc2ccccn2)cc1.Cc1ccc(C(C)C)cc1.F[P-](F)(F)(F)(F)F.[I-].[Ru+2] [Compound 8, [Ru(p-cymene)(Azpy-NMe2)I]PF6] | 5 µM | 3 µM | hydrolysis [5]: no hydrolysis had occurred; reduction by ascorbate [6]: a one electron reduction was occurring; cell survival of cells pre-treated with NAC versus untreated cells (A549 cancer cell line [4]; 5 μM drug): greater cell survival; change in DCF fluorescence over time (ROS generation) (A549 cancer cells): increase in the DCF fluorescence; change of complex in solution ([3]; 100 μM, 99.5% D2O, 0.5% DMSO, 115 mM NaCl, pH=7.5, 37° C., over 24 hours): No change occurred; change of complex in solution ([3]; saturated solution (filtered), 90% H2O/10% D2O, pH=7.2, 25° C. over 24 hours): No change occurred
[(η^6-C6H5OCH2CH2OH)Ru(azpy-NMe2)I]I [Compound 22] | 15 µM | 49 µM | –
[Ru(biphenyl)(Azpy-NMe2)Cl]PF6 [Compound 9] | 40 µM | 53 µM | –
[Ru(bip)(2-phenyl-azo pyridine)I]PF6 [Compound 7] | 51 µM | 39 µM | –
CN(C)c1ccc(N=Nc2cc[nH]n2)cc1.F[P-](F)(F)(F)(F)F.[Cl-].[Ru+2].c1ccc(-c2ccccc2)cc1 [Compound 15, [Ru(biphenyl)(3(5)-(4-dimethylaminophenylazo)pyrazole)Cl]PF6] | 24 µM | 32 µM | arene loss (free biphenyl peaks) ([3]; 100 μM, 99.5% D2O, 0.5% DMSO, 115 mM NaCl, pH=7.35, 37° C., over 24 hours): major peaks corresponding to free biphenyl
[NH2][Pt]([NH2])([Cl])[Cl] [CDDP, cisplatin, reference compound] | – | – | cell survival of cells pre-treated with NAC versus untreated cells (A549 cancer cell line [4]; 5 μM drug): greater cell survival
[Ru(THN)(4-phenol-azo pyridine)Cl]PF6 [Compound 19] | 38 µM | 81 µM | –
[Ru(THN)(3(5)-(4-dimethylaminophenylazo)pyrazole)Cl]PF6 [Compound 18] | 57 µM | – | –
[Ru(p-cymene)(4-phenol-azo pyridine)I]PF6 [Compound 21] | 4 µM | 4 µM | cell survival of cells pre-treated with NAC versus untreated cells (A549 cancer cell line [4]; 5 μM drug): greater cell survival; change in DCF fluorescence over time (ROS generation) (A549 cancer cells): increase in the DCF fluorescence

Source: patent US20090318402A1, “RUTHENIUM (II) COMPOUNDS” (The University Court of the University of Edinburg, priority 2006, published 2009)
